Data set [1] relates to CDK8/CDK19/CCNC protein degradation and STAT1 S727 phosphorylation. Nature of the data set: Wash-off study in HEK-293 cells, Western blot. In kind it is cell-based, human. The conditions noted are these: HEK-293, within 24 hours after removal of drug-containing media. In general terms: Immunoblotting shows a protein as a band on a membrane.
The test system of a further data set is MV4-11 cells. The experiment in a line: Long-term growth of MV4-11 cells under continuous treatment. It is filed as cell-based, human. The settings on record: MV4-11, 300 nM continuous. The method, then: The anti-proliferative effects of a PROTAC and a kinase inhibitor were compared in leukemia cell lines. In the long-term treatment experiment shown in FIG. 11A, Jurkat cells (0.1 million cells) were continuously treated with vehicle control (0.1% DMSO), 300 nM BI-1347 or 300 nM IA7886 for 53 days (each condition in biological triplicates). Every 7-8 days, live cells were counted using BioRAD TC20 Automated Cell Counter with trypan blue staining: 0.1 million live cells were passaged to a new T25 flask to propagate under the same treatment conditions. The survival fraction was calculated by dividing the accumulated number of drug-treated cells with the accumulated number of vehicle-treated cells. […] This sustained inhibition property of PROTAC was also observed in MV4-11, a leukemia cell line highly sensitive to CDK8/19 kinase inhibitors.

Another data set deals with KMS-12-BM cells. Nature of the data set: Concentration dependence of KMS-12-BM growth inhibition (CCK-8 assay). It is filed as cell-based. The settings on record: Homo sapiens, 96 h, over 4 days. The method, then: Concentration dependence of KMS-12-BM growth inhibition over 4 days was determined for BI-1347 CDK8/19 kinase inhibitor and IA7886 PROTAC using CCK-8 assay (FIG. 13B).
(In general: Formazan colour is commonly taken as a measure of viable cells.)

The subject of the next data set is RPMI 8226 cells. Nature of the data set: Concentration dependence of RPMI 8226 growth inhibition. In kind it is cell-based. The conditions noted are these: Homo sapiens, 96 h; RPMI 8226, 4-day growth inhibition.
The subject of the next data set is SK-MM-2 cells. The experiment in a line: SK-MM-2 multiple myeloma cell growth over 20 days continuous treatment. It is filed as cell-based. The settings on record: BI1347 200 nM, Senexin C 1 μM, IA7886 200 nM, IA7843 1 μM. The method, then: The following CDK8/19 kinase inhibitors were tested for their effects on MM cell lines over 20 days continuous treatment: CDK8/19 kinase inhibitors BI1347 (200 nM) and Senexin C (1 μM), BI1347-derived PROTAC IA7886 (200 nM) and Senexin C-derived PROTAC IA7843 (1 μM). 1-4 million cells were treated with vehicle control (0.1% DMSO), or CDK8/19 kinase inhibitors or PROTACs for 20 days. Every 4 days, cells were counted using BioRAD TC20 Automated Cell Counter with trypan blue staining, and the same number of cells were passaged to a new T25 flask to propagate under the same treatment conditions.

Another data set has as its system CCL12. Nature of the data set: CCL12 mRNA expression in CT26 tumors in Balb/c mice (QPCR). It is filed as in vivo. The conditions noted are these: oral gavage 20 mg/kg, 2, 8 or 24 hrs after dosing. The protocol: CT26 cells were injected subcutaneously into syngeneic Balb/c female mice and allowed to grow to 150˜200 mm^3. Tumor-bearing mice then received PROTACs IA7882 or IA7886 by oral gavage at 20 mg/kg in 30% propylene glycol/70% PEG-400 vehicle. Tumors were collected 2, 8 or 24 hrs after dosing and used to measure protein levels of CDK8, pS727 STAT1 and total STAT1 (by western blotting) and mRNA expression of CCL12, a gene that is inhibited by different CDK8/19 inhibitors in CT26 tumors in vivo (by QPCR).

Data set [2] is described as follows: Serum drug concentrations in CD-1 mice (LCMSMS). The settings on record: female CD-1 mice, i.p. 15 mg/kg, 15 min and 1 hr. In kind it is in vivo. The protocol: For preliminary evaluation of the bioavailability of the PROTACs, IA7882 and IA7886 were administered to female CD-1 mice via intraperitoneal (i.p.) injection at the dose of 15 mg/kg. Drug concentrations were measured by LCMSMS analysis of serum samples collected at 15 min and 1 hr time point.

Data set [3] addresses T1, CDK8 (Homo sapiens, UniProt P49336). The experiment in a line: CDK8 degradation in other human cell lines (22Rv1, MV4-11, HAP-1, HTB-185, SAOS2, SJSA-1). In kind it is cell-based. Also noted: endogenous in cells. The settings on record: 24-hr treatment. The text has this:
FIG. 5 illustrates the effects of the novel PROTACs HP8580, IA7843 and IA7886 on CDK8 and CDK19 degradation in other human cell lines, including 22Rv1 prostate cancer (expressing more CDK19 than CDK8), MV4-11 (AML) and HAP-1 (CML) leukemia cell lines, HTB-185 medulloblastoma, and SAOS2 and SJSA-1 osteosarcoma (the latter expressing only CDK19 but not CDK8).

The target of another data set is CDK19 (Homo sapiens, UniProt Q9BWU1). The experiment in a line: CDK19 degradation in Loucy T-cell leukemia cells lacking Cyclin C. The conditions noted are these: Loucy cells (lacking CCNC), 24 hr treatment. More on the design: endogenous in cells; host or cells: Loucy. In kind it is cell-based. The text has this: This cell line, however, is unique in lacking Cyclin C (CCNC), the binding partner of CDK8/19. To test if the absence of CDK8-bound CCNC was responsible for the loss of IA7843 CDK8-degrading activity, we have tested the effect of IA7843 on a derivative of HEK-293cells with CRISPR-mediated knockout of CCNC.

For data set [4], the target named is T1, CDK8. Nature of the data set: CDK8 degradation in HEK-293 cells (Western blot, normalized by GAPDH). In kind it is cell-based. More on the design: endogenous in cells; host or cells: HEK-293. In outline: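 HEK-293 cells were treated for 24 h with or without compound, at 1 μM or 0.3 μM for single-point testing. RIPA lysates were immunoblotted for CDK8, and densitometry gave levels normalized to GAPDH. DC50 is the concentration that reduces CDK8 to half its level in untreated cells.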

Structures are written as SMILES.

T1 sequence (P49336 whole entry): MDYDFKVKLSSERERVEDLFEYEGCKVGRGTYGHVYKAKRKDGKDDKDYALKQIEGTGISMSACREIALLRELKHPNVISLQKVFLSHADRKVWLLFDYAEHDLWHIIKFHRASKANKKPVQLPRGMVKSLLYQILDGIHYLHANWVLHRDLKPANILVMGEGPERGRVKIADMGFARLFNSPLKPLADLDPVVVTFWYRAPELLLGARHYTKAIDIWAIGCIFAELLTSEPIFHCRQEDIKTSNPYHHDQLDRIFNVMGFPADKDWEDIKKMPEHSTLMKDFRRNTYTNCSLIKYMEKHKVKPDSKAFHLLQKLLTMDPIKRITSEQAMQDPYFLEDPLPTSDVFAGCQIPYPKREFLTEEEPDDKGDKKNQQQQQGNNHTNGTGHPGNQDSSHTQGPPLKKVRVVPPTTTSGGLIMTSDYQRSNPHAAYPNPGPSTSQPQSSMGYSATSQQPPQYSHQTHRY
T1 sequence (P24863 whole entry partner): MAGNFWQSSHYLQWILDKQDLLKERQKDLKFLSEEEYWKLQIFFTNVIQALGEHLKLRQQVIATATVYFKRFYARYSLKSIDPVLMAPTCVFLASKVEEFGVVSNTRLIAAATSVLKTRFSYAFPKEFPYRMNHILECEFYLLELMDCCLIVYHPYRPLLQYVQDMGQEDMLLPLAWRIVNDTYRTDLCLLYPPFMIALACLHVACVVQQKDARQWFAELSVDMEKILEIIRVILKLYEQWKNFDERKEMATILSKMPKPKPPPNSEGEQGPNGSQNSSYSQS
Sequence of CDK19 (Q9BWU1 whole entry): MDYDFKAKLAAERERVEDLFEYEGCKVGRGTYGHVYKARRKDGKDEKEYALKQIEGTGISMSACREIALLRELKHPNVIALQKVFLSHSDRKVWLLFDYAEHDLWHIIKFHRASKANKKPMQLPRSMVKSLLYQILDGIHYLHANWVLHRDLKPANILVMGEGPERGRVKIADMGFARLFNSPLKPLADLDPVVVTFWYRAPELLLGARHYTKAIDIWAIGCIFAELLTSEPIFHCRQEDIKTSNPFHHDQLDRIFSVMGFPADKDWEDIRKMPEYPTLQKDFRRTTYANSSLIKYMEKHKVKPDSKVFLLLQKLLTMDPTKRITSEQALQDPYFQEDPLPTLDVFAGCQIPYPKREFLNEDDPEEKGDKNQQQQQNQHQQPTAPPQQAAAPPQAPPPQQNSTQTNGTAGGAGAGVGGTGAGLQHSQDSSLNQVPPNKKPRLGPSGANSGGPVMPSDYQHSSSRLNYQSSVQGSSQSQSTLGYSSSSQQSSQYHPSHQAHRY

A word on the IC50: it is the concentration at which inhibition is half-maximal. Lower therefore signals inhibition by little substance. As a reminder, the DC50 is the midpoint of the concentration-degradation curve. Lower therefore signals degradation at low concentration. With `O=C(CCCNc1cccc2c1C(=O)N(C1CCC(=O)NC1=O)C2=O)NCCCCCCCCCCC(=O)N1CCN(C(=O)Cn2cc(-c3ccc(-c4cncc5ccccc45)cc3)cn2)CC1` (stereo not shown) [IA7886, 4-[[2-(2,6-dioxo-3-piperidyl)-1,3-dioxo-isoindolin-4-yl]amino]-N-[11-[4-[2-[4-[4-(4-isoquinolyl)phenyl]pyrazol-1-yl]acetyl]piperazin-1-yl]-11-oxo-undecyl]butanamide], the “effects on CDK8/CDK19/CCNC protein degradation and STAT1 S727 phosphorylation after removal of drug” value in data set [1] is on record as “remained nearly unchanged”. Besides, the “growth inhibition over 60 days” value in the data set on MV4-11 cells was “much more stable and continued for the entire 60 days”. Further, the values for the IC50 in the data set with KMS-12-BM cells and in the data set on RPMI 8226 cells were 18 nM and 24 nM, respectively. The “growth inhibition over 20 days, order of efficacy” value in the data set with SK-MM-2 cells was “BI1347<IA7886<Senexin C<IA7843”. In the data set on CCL12, the “levels of CCL12 mRNA in tumors” value is reported as “decreased in tumors treated with IA7882 or IA7886 2 hrs or 8 hrs (but not 24 hrs) after dosing”. Besides, in data set [2], the serum drug concentrations entry is “readily measurable and were higher for IA7882 than for IA7886”. The “CDK8 degradation (in words)” value is “significantly degraded CDK8 and CDK19 in all the tested cell lines” at CDK8 [3]; “most potent CDK8 degrader in this set” on CDK8 [4] (HEK-293 cells, Western blot). Besides, on CDK19, the “CDK19 degradation (in words)” value is “efficiently degraded CDK8 and CDK19”. Further, at CDK8 [4] (HEK-293 cells, 24 hours, tested at 1 μM), the “% CDK8 remaining” value was 19%. Besides, the DC50 on CDK8 [4] (HEK-293 cells, concentration degrading CDK8 to half of level in untreated cells) was 2.8 nM. On CDK8 [4] (human 293 cells, 100 nM), the “time at which CDK8 degradation reaches maximum” value is reported as “about 8 hrs”.

The values above are taken from patent publication US20250127906A1, “SMALL-MOLECULE DEGRADERS OF CDK8 AND CDK19” (University of South Carolina, priority 2021, published 2025).
